Test results from publication PMC10855113, “Opioid Analgesic as a Positive Allosteric Modulator of Acid-Sensing Ion Channels” (International Journal of Molecular Sciences, 2024).
Read-outs that look alike come from different tables or passages of the source. Where a SMILES comes first, the peptide text is derived from it. Bridges are numbered along the chain shown (N, C = ends). Where no end group is shown, it is not given here. [ ]: non-standard residue; d: D form.

Legend:
rat ASIC3 [1] = biological target: T1, rat ASIC3 (Rattus norvegicus, UniProt O35240); test: cell-based
T1 construct: expressed in transfected cells; host or cells: Xenopus laevis oocytes injected with cRNA from a PCi plasmid
T1 sequence (O35240 1-533): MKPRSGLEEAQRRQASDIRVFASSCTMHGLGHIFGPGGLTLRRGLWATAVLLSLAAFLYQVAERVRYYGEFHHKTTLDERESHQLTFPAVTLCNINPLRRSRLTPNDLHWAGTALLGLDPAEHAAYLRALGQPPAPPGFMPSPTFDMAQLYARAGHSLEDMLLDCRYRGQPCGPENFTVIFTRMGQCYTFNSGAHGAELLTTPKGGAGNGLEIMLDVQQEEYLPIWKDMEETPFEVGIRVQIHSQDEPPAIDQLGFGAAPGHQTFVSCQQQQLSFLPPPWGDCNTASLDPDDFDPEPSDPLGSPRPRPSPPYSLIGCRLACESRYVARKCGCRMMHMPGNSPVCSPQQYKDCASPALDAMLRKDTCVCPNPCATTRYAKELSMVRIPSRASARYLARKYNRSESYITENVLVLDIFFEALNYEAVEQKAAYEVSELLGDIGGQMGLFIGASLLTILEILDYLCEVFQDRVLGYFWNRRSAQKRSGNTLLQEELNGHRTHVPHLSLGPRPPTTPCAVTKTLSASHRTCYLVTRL

ASIC3 [2] = conditions: mice; activation of ASIC3; ref [31],[32]; cited from earlier work
From the text: In this study, we have investigated the pharmacological effect of tafalgin (Taf) on ASICs. […] These channels, preferably having a neuronal localization, play an important role in the functioning of CNS and PNS, and are involved in the regulation of synaptic plasticity and learning, the fear perception, and responses to ischemic stroke, multiple sclerosis, and nociception. Positive modulators of ASICs are shown to have ...

ASIC channels [3] = conditions: cited from earlier work
rat ASIC1a [4] = biological target: T2, rat ASIC1a (Rattus norvegicus, UniProt P55926); test: two-electrode voltage clamp, homomeric rat ASIC1a in X. laevis oocytes; format: cell-based
T2 construct: expressed in transfected cells; host or cells: Xenopus laevis oocytes injected with cRNA from a PCi plasmid
T2 sequence (P55926 1-526): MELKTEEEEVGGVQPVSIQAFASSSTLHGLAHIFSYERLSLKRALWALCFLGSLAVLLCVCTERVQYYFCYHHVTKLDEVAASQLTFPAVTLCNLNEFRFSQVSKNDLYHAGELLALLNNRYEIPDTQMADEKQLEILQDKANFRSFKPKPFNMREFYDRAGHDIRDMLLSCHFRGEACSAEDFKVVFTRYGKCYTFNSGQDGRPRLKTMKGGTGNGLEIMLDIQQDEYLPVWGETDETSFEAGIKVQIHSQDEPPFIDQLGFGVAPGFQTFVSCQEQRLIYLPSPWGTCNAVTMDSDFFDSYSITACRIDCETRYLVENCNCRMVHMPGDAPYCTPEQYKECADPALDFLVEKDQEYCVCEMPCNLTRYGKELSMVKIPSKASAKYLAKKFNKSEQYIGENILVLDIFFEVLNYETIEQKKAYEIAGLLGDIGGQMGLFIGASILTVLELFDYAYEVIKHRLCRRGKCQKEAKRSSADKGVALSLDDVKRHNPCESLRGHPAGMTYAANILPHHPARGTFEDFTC

human ASIC3 [5] = biological target: T3, human ASIC3 (Homo sapiens, UniProt Q9UHC3); test: steady-state desensitization of human ASIC3; format: cell-based; conditions: pH 7.4; 1 mM Taf; without Taf 11 ± 2%; control = pH drop 8.0 to 5.5; mean ± SEM, n = 5; p = 0.005; read-out: total integral current at conditioning pH 7.4, % of control
T3 construct: expressed in transfected cells; host or cells: Xenopus laevis oocytes injected with cRNA from a pVAX1 plasmid
T3 sequence (Q9UHC3 1-531): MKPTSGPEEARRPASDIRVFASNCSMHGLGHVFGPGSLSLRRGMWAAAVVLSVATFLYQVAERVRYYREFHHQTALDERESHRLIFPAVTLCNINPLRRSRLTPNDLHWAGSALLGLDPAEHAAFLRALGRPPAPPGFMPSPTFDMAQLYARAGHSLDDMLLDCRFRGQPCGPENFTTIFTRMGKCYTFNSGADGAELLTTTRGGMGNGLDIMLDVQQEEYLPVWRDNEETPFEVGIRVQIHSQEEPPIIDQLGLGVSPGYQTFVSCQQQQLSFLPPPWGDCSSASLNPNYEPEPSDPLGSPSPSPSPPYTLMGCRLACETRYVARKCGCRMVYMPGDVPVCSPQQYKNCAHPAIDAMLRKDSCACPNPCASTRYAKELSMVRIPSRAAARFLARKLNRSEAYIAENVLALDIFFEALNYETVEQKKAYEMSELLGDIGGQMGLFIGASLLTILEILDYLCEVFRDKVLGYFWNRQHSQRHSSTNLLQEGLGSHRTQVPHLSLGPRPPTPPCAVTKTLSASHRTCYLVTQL

rat ASIC3 [6] = biological target: T1, rat ASIC3; test: steady-state desensitization (SSD) of rat ASIC3; format: cell-based; conditions: pH 7, without Taf 1.4 ± 0.2%, control = pH drop 7.4 to 5.5, mean ± SEM, n = 5, read-out: integral current at conditioning pH 7.0, % of control
rat ASIC3 [7] = biological target: T1, rat ASIC3; test: two-electrode voltage clamp, homomeric rat ASIC3 in X. laevis oocytes; format: cell-based
[8] = solution for subcutaneous administration; ref manufacturer's website https://sotex.ru/production/catalog/detail.php?ELEMENT_ID=4952; cited from earlier work
From the text: Due to the modulating effect of Taf towards ASIC3 in peripheral neurons, the proven analgesic effect of Taf on human may be accompanied by the development of side effects such as pain, mechanical hyperalgesia, inflammatory muscle and joint hyperalgesia, etc., where ASIC3 plays a crucial role. In addition, the significant modulating effect on ASIC1b/3 heteromers (Figure 7) may also have a negative impact on both peripheral acute and acid-induced chronic pain, where the ASIC1b-containing channels also play an important role. Indeed, the recommended dose for subcutaneous a ...

human ASIC3 [9] = biological target: T3, human ASIC3; test: two-electrode voltage clamp, human ASIC3 in X. laevis oocytes; format: cell-based
rat ASIC1a [10] = biological target: T2, rat ASIC1a; test: steady-state desensitization of rat ASIC1a; format: cell-based; conditions: 1 mM Taf; without Taf 9.1 ± 2.5%; stimulus pH 5.5; mean ± SEM, n = 5; p = 0.9; read-out: integral current at conditioning pH 7.0, % of control
[11] = test system: ASIC1a and ASIC1a-containing channels; conditions: cited from earlier work
ASIC1 = conditions: cited from earlier work
ASIC channels [12] = test system: ASIC channels; design: method as in PMID 34721074; conditions: dual-action ligand; ref [39]; cited from earlier work
ASIC3 [13] = test system: ASIC3; design: method as in PMID 37918499; conditions: suppressing morphine-induced microglial activation through ASIC3 inhibition; ref [40]; cited from earlier work

## GTACSCGNSKGIYWFYRPSCPTDRGYTGSCRYFLGTCCTPAD (disulfide 4-37, 6-30, 20-38) [APETx2]
Rat ASIC3 [1]; 100 nM APETx2, control 282 ± 22 ms, mean ± SEM, n = 5, p = 0.2
  τdes: 240 ± 22 ms
Rat ASIC3 [1]; APETx2 + 0.3 mM Taf, mean ± SEM, 5–6 cells
  nH of inhibition in the presence of Taf: 1.11 ± 0.05
Rat ASIC3 [1]; APETx2 alone, mean ± SEM, 5–6 cells
  nH of inhibition: 1.37 ± 0.05
Rat ASIC3 [1]; APETx2 alone, pH 7.4 to 5.5
  inhibition of the channel: completely inhibited the channel

## Cc1nc(NC(=N)N)nc2ccccc12 [2-guanidine-4-methylquinazoline]
ASIC3 [2]
  nocifensive behavior: induce nocifensive behavior in mice

## COc1ccc2c3c1O[C@H]1C(=O)CC[C@@]4(O)[C@@H](C2)N(C)CC[C@]314 [oxycodone]
ASIC channels [3]
  effect on ASIC channels: positive modulating effect

## C[C@@H](NC(=O)[C@@H](N)Cc1ccc(O)cc1)C(=O)N[C@@H](Cc1ccccc1)C(=O)NCC(N)=O [Taf, Tyr-D-Ala-Phe-Gly-NH2] (H-Y[dA]FG-NH2)
Rat ASIC1a [4]
  EC50: 1050 ± 270 µM
Rat ASIC1a [4]; 0.3 mM Taf, Vh −50 mV, pH 7.4 to 5.5, mean ± SEM, n = 5, p < 0.001
  increase in the integral current: 40 ± 5%
Rat ASIC1a [4]; pH 7.4 to 5.5, mean ± SEM, n = 10, same as rASIC3 (p = 0.45)
  integral current Imax, % of control: 332 ± 103%
Human ASIC3 [5]
  remaining activity at 1000 µM: 22 ± 4%
Rat ASIC3 [6]; 0.3 mM Taf, p = 0.009
  remaining activity at 300 µM: 3.6 ± 0.3%
Rat ASIC3 [6]; 2 mM Taf
  remaining activity at 2000 µM: 50 ± 3%
Rat ASIC3 [7]
  EC50: 86 ± 24 µM
Rat ASIC3 [7]; 0.3 mM Taf pre-applied 30 s in resting state, conditioning pH 7.4, stimulus pH 5.5, mean ± SEM, n = 5, p < 0.001
  increase in the integral current, protocol p.-a.: 116 ± 5%
Rat ASIC3 [7]; 0.3 mM Taf, Vh −50 mV, pH 5.5 stimulus, isoform screening, mean ± SEM, n = 5, p < 0.001
  increase in the integral current: 115 ± 6%
Rat ASIC3 [7]; integral current vs control (pH drop from 7.4 to 5.5), mean ± SEM, n = 9
  maximum current (Imax), to control: 251 ± 15%
[8]
  side effects: peripheral neuropathy, itching, and pain at the injection site
Human ASIC3 [9]
  EC50: 330 ± 80 µM
Human ASIC3 [9]; integral current, pH 8.0 to 5.5, mean ± SEM, 5 cells
  Imax (upper asymptote), % of control: 373 ± 28%
Human ASIC3 [9]; ~9 mM solution vs EC50 on hASIC3
  recommended subcutaneous dose concentration (~9 mM) over EC50 for human ASIC3: approximately 30 times
Rat ASIC1a [10]
  remaining activity at 1000 µM: 9.4 ± 2.5%

## dynorphin
[11]
  effect on proton-evoked currents: restore the proton-evoked currents
ASIC1
  acidosis-induced neuronal death: increase the acidosis-induced neuronal death

## N=C(N)NC(=O)c1nc(Cl)c(N)nc1N [Ami, amiloride]
ASIC channels [12]
  action on ASIC channels: capable of blocking ASIC channels and acting as an ASIC3-positive modulator
ASIC3 [13]
  chronic morphine tolerance: reduce chronic morphine tolerance
Rat ASIC3 [1]
  nH of inhibition in the presence of Taf: 1.06 ± 0.37
  residual integral current in the presence of Taf, % of control: 129 ± 9%
  τdes: 732 ± 46 ms
Rat ASIC3 [1]; half-maximal inhibitory concentration (IC50)
  IC50: 66.9 ± 5.2 µM
Rat ASIC3 [1]; half-maximal inhibitory concentration (IC50) in the presence of Taf
  IC50: 61.5 ± 21.2 µM
Rat ASIC3 [1]; pH 7.4
  nH of inhibition: 0.87 ± 0.05
  residual integral current (lower asymptote), % of control: 36 ± 2%

## DAMGO
ASIC channels [3]
  effect on ASIC channels: negative modulators

## CN1CC[C@]23c4c5ccc(O)c4O[C@H]2[C@@H](O)C=C[C@H]3[C@H]1C5 [morphine]
ASIC channels [3]
  effect on ASIC channels: negative modulators
